According to the supplement of paper PMC10307832:

Assays:
Experiment in all cases: relative viability (nuclei count vs DMSO), 5 days (fraction); higher = more cells survive
[1] = compound: C[C@@H](Oc1cc(-c2cnn(C3CCNCC3)c2)cnc1N)c1c(Cl)ccc(F)c1Cl [Crizotinib] + O=C(CCCCCCC(=O)Nc1ccccc1)NO [Vorinostat] (partner 1 µM)
Procedure, shortened: (§1)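 Five library-drug doses in √10 steps were combined with a fixed anchor-drug dose, or a single drug was given alone, by pin tool to lung cancer cell lines in 1536-well plates the day after seeding. Nuclei were stained and counted after 5 days. Relative viability is the nuclei count in treated wells over that in vehicle wells, taken as the median of duplicate plates.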

[2] = compound: CC(C)C[C@H](NC(=O)[C@H](CCc1ccccc1)NC(=O)CN1CCOCC1)C(=O)N[C@@H](Cc1ccccc1)C(=O)N[C@@H](CC(C)C)C(=O)[C@@]1(C)CO1 [Carfilzomib] + O=C(CCCCCCC(=O)Nc1ccccc1)NO [Vorinostat] (partner 1 µM)
Procedure, shortened: as §1

[3] = compound: O=C(c1cc(Cc2n[nH]c(=O)c3ccccc23)ccc1F)N1CCN(C(=O)C2CC2)CC1 [Olaparib] + CS(=O)(=O)N1CCN(Cc2cc3nc(-c4cccc5[nH]ncc45)nc(N4CCOCC4)c3s2)CC1 [Pictilisib] (partner 1 µM)
Procedure, shortened: as §1

[4] = compound: O=C(c1cc(Cc2n[nH]c(=O)c3ccccc23)ccc1F)N1CCN(C(=O)C2CC2)CC1 [Olaparib] + Nc1nc2[nH]cc(CCc3ccc(C(=O)N[C@@H](CCC(=O)O)C(=O)O)cc3)c2c(=O)[nH]1 [Pemetrexed] (partner 0.2 µM)
Procedure, shortened: as §1

Cell Line | relative viability ([1]; first compound 0.01 µM) | relative viability ([1]; first compound 0.03162 µM) | relative viability ([1]; first compound 0.1 µM) | relative viability ([1]; first compound 0.3162 µM) | relative viability ([1]; first compound 1 µM) | relative viability ([2]; first compound 0.001 µM) | relative viability ([2]; first compound 0.003162 µM) | relative viability ([2]; first compound 0.01 µM) | relative viability ([2]; first compound 0.03162 µM) | relative viability ([2]; first compound 0.1 µM) | relative viability ([3]; first compound 0.08 µM) | relative viability ([3]; first compound 0.253 µM) | relative viability ([3]; first compound 2.53 µM) | relative viability ([3]; first compound 8 µM) | relative viability ([4]; first compound 0.08 µM) | relative viability ([4]; first compound 0.253 µM) | relative viability ([4]; first compound 2.53 µM) | relative viability ([4]; first compound 8 µM)
NCI-H358 | 0.793 | 0.658 | 0.718 | 0.725 | 0.697 | 0.69 | 0.692 | 0.515 | 0.0656 | 0.0773 | 0.301 | 0.311 | 0.347 | 0.312 | 0.159 | 0.172 | 0.176 | 0.152
NCI-H441 | 0.799 | 0.774 | 0.63 | 0.768 | 0.965 | 0.777 | 0.683 | 0.546 | 0.129 | 0.141 | 0.676 | 0.387 | 0.552 | 0.456 | 0.28 | 0.279 | 0.287 | 0.239
NCI-H460 | 0.709 | 0.69 | 0.688 | 0.852 | 0.722 | 0.743 | 0.661 | 0.68 | 0.093 | 0.0182 | 0.404 | 0.319 | 0.342 | 0.27 | 0.055 | 0.0542 | 0.0654 | 0.0663
NCI-H520 | 0.568 | 0.68 | 0.732 | 0.774 | 0.722 | 0.684 | 0.605 | 0.192 | 0.156 | 0.148 | 0.318 | 0.315 | 0.278 | 0.236 | 0.866 | 0.646 | 0.604 | 0.458
NCI-H596 | 0.638 | 0.681 | 0.742 | 0.62 | 0.748 | 0.585 | 0.612 | 0.448 | 0.173 | 0.159 | 0.417 | 0.381 | 0.45 | 0.394 | 0.592 | 0.496 | 0.493 | 0.543
NCI-H647 | – | 0.71 | 0.575 | 0.764 | 0.643 | 0.69 | 0.483 | 0.137 | 0.0309 | 0.0228 | 0.66 | – | 0.486 | 0.515 | 0.193 | 0.156 | 0.138 | 0.15
NCI-H650 | 0.528 | 0.414 | 0.396 | – | 0.444 | 0.354 | 0.468 | 0.532 | 0.132 | 0.107 | 1.03 | 0.912 | 0.661 | 0.748 | 0.912 | 0.901 | 0.871 | 0.776
NCI-H661 | 0.706 | 0.777 | 0.731 | 0.841 | 0.775 | 0.821 | 0.861 | 0.808 | 0.553 | 0.215 | 0.431 | 0.399 | 0.439 | 0.386 | 0.954 | 0.871 | 0.901 | 0.795
NCI-H838 | 0.715 | – | 0.728 | 0.687 | 0.701 | 0.922 | 0.774 | 0.719 | 0.199 | 0.152 | 0.452 | 0.439 | 0.519 | 0.408 | 0.25 | 0.226 | 0.239 | 0.246
NCI-H1355 | 0.638 | 0.629 | 0.625 | 0.564 | 0.613 | 0.533 | 0.703 | 0.664 | 0.569 | 0.142 | 0.537 | 0.397 | 0.408 | 0.444 | 1.04 | 1.01 | 1.05 | 1.08
NCI-H1395 | 0.602 | 0.827 | 0.794 | 0.53 | 0.554 | – | 0.791 | 0.469 | 0.306 | 0.316 | 0.78 | 0.639 | 0.575 | 0.534 | 0.8 | 0.565 | 0.564 | 0.497
NCI-H1437 | 0.832 | 0.832 | 0.857 | 0.867 | 0.849 | 0.834 | 0.895 | 1.14 | 0.435 | 0.206 | 0.373 | 0.395 | 0.501 | 0.381 | 0.345 | 0.3 | 0.32 | 0.325
NCI-H1650 | 0.471 | 0.594 | 0.527 | 0.68 | 0.619 | 0.65 | 0.475 | 0.19 | 0.152 | 0.127 | 0.866 | 0.523 | 0.572 | 0.647 | 0.393 | 0.329 | 0.314 | 0.366
NCI-H1651 | 0.572 | 0.424 | 0.582 | 0.398 | 0.61 | 0.602 | 0.597 | 0.447 | 0.188 | 0.104 | 0.62 | 0.562 | 0.599 | 0.331 | 0.624 | 0.586 | 0.553 | 0.334
NCI-H1666 | 1.14 | 0.999 | 1.07 | 0.978 | 0.955 | 0.972 | 0.933 | 1.15 | 1.03 | 0.599 | 0.637 | 0.33 | 0.488 | 0.52 | 0.945 | 0.772 | 0.856 | 0.822
NCI-H1734 | 0.866 | 0.787 | 0.784 | – | 0.807 | 0.75 | 0.932 | 0.592 | 0.119 | 0.109 | 0.469 | 0.471 | 0.419 | 0.336 | 0.417 | 0.398 | 0.387 | 0.362
NCI-H1755 | 0.668 | 0.779 | 0.743 | 0.757 | 0.764 | 0.806 | 0.793 | 0.664 | 0.464 | 0.383 | 0.553 | 0.383 | 0.405 | 0.338 | 0.447 | 0.68 | 0.419 | 0.396
NCI-H1915 | 0.601 | 0.518 | 0.502 | 0.458 | 0.517 | 0.499 | 0.537 | 0.452 | 0.517 | 0.0617 | 0.928 | 0.845 | 0.746 | 0.473 | 0.553 | 0.493 | 0.511 | 0.419
